Measured values: patent publication US11484529B2, “Desmethylanethole trithione derivatives for the treatment of diseases linked to mitochondrial reactive oxygen species (ROS) production” (OP2 Drugs, priority 2017, dated 2022)

How the values were obtained:
site IIIQO = target: T1, site IIIQO (Rattus norvegicus, UniProt P00159+P20788); assay: Mitochondrial ROS/H2O2 production (Amplex Red/HRP) after rotenone, antimycin A, myxothiazol; format: biochemical; details: AOL 5 to 80 μM
T1 construct: from tissue; host or cells: mitochondria isolated from rat heart
Procedure: Rates of ROS/H2O2 production from heart mitochondria were assessed through the oxidation of the colorless, non-fluorescent indicator Amplex Red in the presence of exogenous horseradish peroxidase (HRP, EC 1.11.1.7, Sigma). H2O2 reacts with Amplex Red in a 1:1 stoichiometry, yielding the fluorescent compound resorufin (excitation: 560 nm; emission: 585 nm) which is stable once formed. Fluorescence was measured continuously with a spectro-fluorometer equipped with temperature control and stirring (SAFAS Xenius, Monaco). Isolated mitochondria (0.1 mg/mL) were incubated in the same experimental buffer than previously, supplemented with 15 μM Amplex Red and 10 μg/mL HRP. Glutamate (5 mM)/malate (2.5 mM) together with succinate (5 mM) were used as complex I and complex II substrates, respectively. Experiments were conducted under non-phosphorylating conditions in the presence of 15 μM atractyloside, i.e., under state IV conditions where mitochondrial membrane is maximal. […]
Rates of ROS/H2O2 production from heart mitochondria were assessed through the oxidation of the colorless, non-fluorescent indicator Amplex Red in the presence of exogenous horseradish peroxidase (HRP, EC 1.11.1.7, Sigma). […] Fluorescence was measured continuously with a spectro-fluorometer equipped with temperature control and stirring (SAFAS Xenius, Monaco). […]

MPTP-treated mice = assay: Sub-chronic MPTP mouse model of Parkinson's disease, TH-positive neurons in the substantia nigra; format: in vivo; details: AOL 5 mg/kg i.p., 11 consecutive days; p<0.01
Procedure: In this study, the potential neuroprotective effects of AOL were assessed by counting the number of tyrosine hydroxylase (TH)-positive neurons in the substantia nigra (SN) in the sub-chronic 1-methyl-4-phenyl-1,2,3,6-tetrahydropyridine (MPTP) mouse model of Parkinson's disease. Mice were treated with AOL (5 mg/kg; i.p.) or vehicle for 11 consecutive days. MPTP (20 mg/kg; i.p.) or saline was administered on treatment days 4-8. All mice were killed on day 12 following final administration of treatment.
For vehicle conditions, the test item was dissolved in 0.5% DMSO/0.95% Tween 20 in saline while AOL was administered intraperitoneally (i.p.) at the dose of 5 mg/kg. […]
Unbiased stereological analysis was used to estimate the number of TH-immunopositive (TH+) neurons (Mercator, Explora Nova, La Rochelle, France). The boundaries of the SN were determined by examining the size and shape of the different TH+ neuronal groups. The volume was calculated by using the formula: V=ΣS td; where ΣS is the sum of surface areas, t is the average section thickness and d is the number of slices between two consecutive sections measured. […] The following formula was used to estimate the number of TH+ neurons: N=V(SN) (ΣQ−/ΣV(dis)); where N is the estimation of cell number, V is the volume of the SN, ΣQ− is the number of cells counted in the dissectors, and ΣV(dis) is the total volume of all the dissectors. […]

T1 sequence (P00159 whole entry): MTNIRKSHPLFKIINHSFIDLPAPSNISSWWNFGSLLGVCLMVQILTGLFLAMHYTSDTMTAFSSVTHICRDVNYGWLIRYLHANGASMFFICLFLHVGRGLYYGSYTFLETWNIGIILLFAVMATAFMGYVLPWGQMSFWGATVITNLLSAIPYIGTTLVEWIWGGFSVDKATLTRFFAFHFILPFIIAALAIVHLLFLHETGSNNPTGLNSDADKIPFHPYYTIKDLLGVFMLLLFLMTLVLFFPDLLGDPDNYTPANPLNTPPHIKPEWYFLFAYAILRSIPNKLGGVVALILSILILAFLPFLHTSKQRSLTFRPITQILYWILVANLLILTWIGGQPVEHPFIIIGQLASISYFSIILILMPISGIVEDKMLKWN
T1 sequence (P20788 79-274 limits assumed): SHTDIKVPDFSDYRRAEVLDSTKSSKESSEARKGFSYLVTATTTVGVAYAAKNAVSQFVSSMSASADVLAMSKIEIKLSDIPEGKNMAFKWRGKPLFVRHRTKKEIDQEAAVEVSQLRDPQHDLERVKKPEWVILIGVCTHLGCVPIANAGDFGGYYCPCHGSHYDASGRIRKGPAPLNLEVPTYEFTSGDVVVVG
T1 sequence (P20788 1-78 partner limits assumed): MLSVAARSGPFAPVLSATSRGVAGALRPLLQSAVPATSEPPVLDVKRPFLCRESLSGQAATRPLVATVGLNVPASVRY
T1 sequence (Q68FY0 35-480 partner): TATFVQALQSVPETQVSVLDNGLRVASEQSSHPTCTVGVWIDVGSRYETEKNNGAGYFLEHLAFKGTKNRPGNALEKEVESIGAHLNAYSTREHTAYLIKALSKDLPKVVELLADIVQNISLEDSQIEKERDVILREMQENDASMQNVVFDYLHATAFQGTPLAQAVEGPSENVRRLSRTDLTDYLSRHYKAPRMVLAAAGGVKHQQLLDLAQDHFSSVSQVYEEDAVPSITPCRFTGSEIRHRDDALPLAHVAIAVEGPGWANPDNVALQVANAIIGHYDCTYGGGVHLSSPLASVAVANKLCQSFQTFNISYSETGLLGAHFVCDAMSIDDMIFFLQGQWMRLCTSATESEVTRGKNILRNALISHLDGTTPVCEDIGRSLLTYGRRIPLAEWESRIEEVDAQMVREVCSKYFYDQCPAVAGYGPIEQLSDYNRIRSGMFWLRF
T1 sequence (P32551 15-452 partner): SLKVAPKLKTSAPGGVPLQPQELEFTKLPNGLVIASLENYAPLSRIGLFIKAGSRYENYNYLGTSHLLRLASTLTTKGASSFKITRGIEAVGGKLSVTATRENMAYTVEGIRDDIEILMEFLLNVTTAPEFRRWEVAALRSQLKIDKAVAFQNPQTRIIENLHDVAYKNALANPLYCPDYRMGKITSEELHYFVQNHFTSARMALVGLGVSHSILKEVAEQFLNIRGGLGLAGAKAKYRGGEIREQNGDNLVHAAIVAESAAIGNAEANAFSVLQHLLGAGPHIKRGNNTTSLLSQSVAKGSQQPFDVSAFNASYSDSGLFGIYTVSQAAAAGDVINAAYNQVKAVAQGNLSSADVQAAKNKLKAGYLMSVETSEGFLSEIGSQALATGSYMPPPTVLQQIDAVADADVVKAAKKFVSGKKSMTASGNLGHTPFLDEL

COc1ccc(-c2cc(=S)ss2)cc1 [AOL, 5-(4-methoxyphenyl)-3H-1,2-dithiole-3-thione]
effect on ROS/H2O2 production under the other conditions (site IIIQO): no statistical differences were observed | increase of the number of TH+ cells in the SN compared to vehicle in MPTP-treated mice (MPTP-treated mice): 44%
